The test system of assay [1] is pS6K1 (p-p70 S6 Kinase (Thr389)) in MCF-7 cells. Briefly: AlphaLISA Ultra pS6K1 Assay. It is filed as cell-based. To be noted: Homo sapiens, 1.5 h; MCF7 cells, 90 min. On the procedure: AlphaLISA Ultra pS6K1 Assay
1. Seed MCF-7 cells in Corning 3701 plate and incubate for 20˜24 hour. 12,000˜16,000 cells will be seeded in 36 μL medium per well.
2. Change the culture medium with fresh medium and incubate for another 2 hours.
3. Add 12 μL (4×) compounds into the cell plate by HAMILTON. Final DMSO concentration is 0.5%. Incubate for 90 minutes.
4. Aspirate […] by HAMILTON, 10 μL rest per well.
5. Add 10 μL 2× lysis buffer using HAMILTON; total volume in wells is 20 μL. Allow cells to shake for 30 min. Cover plate by plastic foil and store plate at −80° C. up to analysis.
6. Thaw cell lysate at RT and transfer 10 μL lysate to assay plate (Optiplate-384).
7. Add 5 μL acceptor beads into assay plate and incubation for 2 hours
8. Add 5 μL donor beads and incubation for 2 hours
9. Count the plate by EnSpire Multimode Plate Reader

Another assay has as its system mTORC1 over mTORC2. Briefly: mTORC1 selectivity over mTORC2 at 24 hrs (Western blot based pS6K1 and pAKT assay). It is filed as cell-based. The note with it: 24 hrs. The protocol:
Western Blot Based pS6K1 and pAKT Assay at 24 and 48 Hour Timepoints
1. Seed six well plate with 500,000 PC3 cells per well and incubate for 20˜24 hour.
2. Add compounds into the cell plate. Incubate for 24 to 48 hours.
4. Plate is placed on ice and the media is removed via aspiration. The wells are washed with 1 mL of 1× PBS and then fully aspirated.
5. 110 μL of 1% Triton Lysis Buffer is added and each well is scraped vigorously.
6. Cell homogenates are transferred to 1.5 mL eppendorf tubes on ice and spun down at 4° C. for 10 minutes at 10,000 rpm.
9. The membranes were washed 3× with TBS-T with a 5 minute incubation between each wash then incubated with secondary antibody (LiCor IRDye 800 Donkey Anti Rabbit) for at least 30 minutes.
10. The membranes were washed 3× with TBS-T with a 5 minute incubation between each wash.
11. The gels were then incubated for 5 minutes with PBS at room temperature then imaged using a Li-Cor.
“N/A” stands for “not assayed.”

In turn, `COCCOCCO[C@@H]1C[C@@H]2CC[C@@H](C)[C@@](O)(O2)C(=O)C(=O)N2CCCC[C@H]2C(=O)O[C@H]([C@H](C)C[C@@H]2CC[C@@H](OCCO)[C@H](OC)C2)CC(=O)[C@H](C)/C=C(\C)[C@@H](O)[C@@H](OC)C(=O)[C@H](C)C[C@H](C)/C=C/C=C/C=C/1C` [I-104, (22E,24E,26E,27E,35R,36S,37R,38R,40S,42S,44R,45S,46R,47R,56R)-46, 56-dihydroxy-45-[(1R)-2-[(1S,3R, 4R)-4-(2-hydroxyethoxy)-3-methoxy-cyclohexyl]-1-methyl-ethyl]-47-methoxy-44-[2-(2-methoxyethoxy)ethoxy]-35,36,37,38,48,49-hexamethyl-66, 67-dioxa-57-azatricyclohexatriaconta-22,24,26(48),27(49)-tetraene-50,51,52,53,54-pentone] displayed an IC50 in assay [1] of 0.1 to 1 nM. Moreover, the “mTORC1 selective @ 24 hrs” value in the assay with mTORC1 over mTORC2 is given as “YES”.

Regarding `CO[C@@H]1C[C@H](C[C@@H](C)[C@@H]2CC(=O)[C@H](C)/C=C(\C)[C@@H](O)[C@@H](OC)C(=O)[C@H](C)C[C@H](C)/C=C/C=C/C=C(\C)[C@H](OCC3COCCOCCOCCOCCO3)C[C@@H]3CC[C@@H](C)[C@@](O)(O3)C(=O)C(=O)N3CCCC[C@H]3C(=O)O2)CC[C@H]1O` (stereo partly drawn) [I-107, (30E,32E,34E,35E,38R,39S,40R,41R,43S,45S,47R,48S,50R,51R,60R)-50, 60-dihydroxy-48-[(1R)-2-[(1S,3R,4R)-4-hydroxy-3-methoxy-cyclohexyl]-1-methyl-ethyl]-51-methoxy-38, 39,40,41,52,53-hexamethyl-47-(1,4,7,10,13-pentaoxacyclopentadec-2-ylmethoxy)-75, 76-dioxa-61-azatricyclohexatriaconta-30,32,34(52),35(53)-tetraene-54,55,56,57,58-pentone], in assay [1], the IC50 was ≥ 100 nM. Also, the “mTORC1 selective @ 24 hrs” value in the assay on mTORC1 over mTORC2 was “YES”.

`CO[C@@H]1C[C@H](C[C@@H](C)[C@@H]2CC(=O)[C@H](C)/C=C(\C)[C@@H](O)[C@@H](OC)C(=O)[C@H](C)C[C@H](C)/C=C/C=C/C=C(\C)[C@@H](OCC3COCCOCCOCCOCCO3)C[C@@H]3CC[C@@H](C)[C@@](O)(O3)C(=O)C(=O)N3CCCC[C@H]3C(=O)O2)CC[C@H]1O` (stereo partly drawn) [I-108, (30E, 32E,34E,35E,38R,39S,40R,41R,43S,45S,47S,48S,50R,51R,60R)-50, 60-dihydroxy-48-[(1R)-2-[(1S,3R,4R)-4-hydroxy-3-methoxy-cyclohexyl]-1-methyl-ethyl]-51-methoxy-38, 39,40,41,52,53-hexamethyl-47-(1,4,7,10,13-pentaoxacyclopentadec-2-ylmethoxy)-75, 76-dioxa-61-azatricyclohexatriaconta-30, 32,34(52),35(53)-tetraene-54,55,56,57,58-pentone] returned an IC50 in assay [1] of 0.1 to 1 nM. Also, the “mTORC1 selective @ 24 hrs” value with mTORC1 over mTORC2 was “YES”.

`CO[C@@H]1C[C@H](C[C@@H](C)[C@@H]2CC(=O)[C@H](C)/C=C(\C)[C@@H](O)[C@@H](OC)C(=O)[C@H](C)C[C@H](C)/C=C/C=C/C=C(\C)[C@H](OCCOCCOCCO)C[C@@H]3CC[C@@H](C)[C@@](O)(O3)C(=O)C(=O)N3CCCC[C@H]3C(=O)O2)CC[C@H]1OCCO` [I-109, (21E,23E,25E,26E,36R,37S,38R,39R,41S,43S,45R,46S,47R,48R,57R)-47, 57-dihydroxy-45-[2-[2-(2-hydroxyethoxy)ethoxy]ethoxy]-46-[(1R)-2-[(1S,3R, 4R)-4-(2-hydroxyethoxy)-3-methoxy-cyclohexyl]-1-methyl-ethyl]-48-methoxy-36,37,38,39,49,50-hexamethyl-68, 69-dioxa-58-azatricyclohexatriaconta-21,23,25(49),26(50)-tetraene-51,52,53,54,55-pentone]: the IC50 in assay [1] was in the range of 1 to 10 nM. For the same compound, the “mTORC1 selective @ 24 hrs” value in the assay with mTORC1 over mTORC2 was “YES”.

`CO[C@@H]1C[C@H](C[C@@H](C)[C@@H]2CC(=O)[C@H](C)/C=C(\C)[C@@H](O)[C@@H](OC)C(=O)[C@H](C)C[C@H](C)/C=C/C=C/C=C(\C)[C@H](OCC3COCCOCCOCCO3)C[C@@H]3CC[C@@H](C)[C@@](O)(O3)C(=O)C(=O)N3CCCC[C@H]3C(=O)O2)CC[C@H]1O` (stereo partly drawn) [I-111, (28E,30E,32E,33E,36R,37S,38R,39R,41S,43S,45R,46S,48R,49R,58R)-48, 58-dihydroxy-46-[(1R)-2-[(1S,3R,4R)-4-hydroxy-3-methoxy-cyclohexyl]-1-methyl-ethyl]-49-methoxy-36, 37,38,39,50,51-hexamethyl-45-(1,4,7,10-tetraoxacyclododec-2-ylmethoxy)-72,73-dioxa-59-azatricyclohexatriaconta-28, 30,32(50),33(51)-tetraene-52,53,54,55,56-pentone] registered an IC50 in assay [1] of 1 to 10 nM. In the assay with mTORC1 over mTORC2, the “mTORC1 selective @ 24 hrs” value is “YES”.

In assay [1], `CO[C@@H]1C[C@H](C[C@@H](C)[C@@H]2CC(=O)[C@H](C)/C=C(\C)[C@@H](O)[C@@H](OC)C(=O)[C@H](C)C[C@H](C)/C=C/C=C/C=C(\C)[C@@H](OCC3COCCOCCOCCO3)C[C@@H]3CC[C@@H](C)[C@@](O)(O3)C(=O)C(=O)N3CCCC[C@H]3C(=O)O2)CC[C@H]1O` (stereo partly drawn) [I-112, (28E,30E,32E,33E,36R,37S,38R,39R,41S,43S,45S,46S,48R,49R,58R)-48, 58-dihydroxy-46-[(1R)-2-[(1S,3R,4R)-4-hydroxy-3-methoxy-cyclohexyl]-1-methyl-ethyl]-49-methoxy-36, 37,38,39,50,51-hexamethyl-45-(1,4,7,10-tetraoxacyclododec-2-ylmethoxy)-72, 73-dioxa-59-azatricyclohexatriaconta-28,30,32(50),33(51)-tetraene-52, 53,54,55,56-pentone] displayed an IC50 of 0.1 to 1 nM. Moreover, the “mTORC1 selective @ 24 hrs” value in the assay on mTORC1 over mTORC2 is “YES”.

Compound `CO[C@@H]1C[C@H](C[C@@H](C)[C@@H]2CC(=O)[C@H](C)/C=C(\C)[C@@H](O)[C@@H](OC)C(=O)[C@H](C)C[C@H](C)/C=C/C=C/C=C(\C)[C@H](OCCOCCOCCOCCO)C[C@@H]3CC[C@@H](C)[C@@](O)(O3)C(=O)C(=O)N3CCCC[C@H]3C(=O)O2)CC[C@H]1OCCO` [I-114, (21E,23E,25E,26E,38R,39S,40R,41R,43S,45S,47R,48S,49R,50R,59R)-49, 59-dihydroxy-47-[2-[2-[2-(2-hydroxyethoxy)ethoxy]ethoxy]ethoxy]-48-[(1R)-2-[(1S,3R, 4R)-4-(2-hydroxyethoxy)-3-methoxy-cyclohexyl]-1-methyl-ethyl]-50-methoxy-38,39,40,41,51, 52-hexamethyl-70,71-dioxa-60-azatricyclohexatriaconta-21,23,25(51),26(52)-tetraene-53, 54,55,56,57-pentone] returned an IC50 in assay [1] of 1 to 10 nM. Further, the “mTORC1 selective @ 24 hrs” value in the assay on mTORC1 over mTORC2 is listed as “YES”.

For the compound `CO[C@@H]1C[C@H](C[C@@H](C)[C@@H]2CC(=O)[C@H](C)/C=C(\C)[C@@H](O)[C@@H](OC)C(=O)[C@H](C)C[C@H](C)/C=C/C=C/C=C(\C)[C@H](OCCOCCO)C[C@@H]3CC[C@@H](C)[C@@](O)(O3)C(=O)C(=O)N3CCCC[C@H]3C(=O)O2)CC[C@H]1OCCO` [I-116, (21E,23E,25E,26E,34R,35S,36R,37R,39S,41S,43R,44S,45R,46R,55R)-45, 55-dihydroxy-43-[2-(2-hydroxyethoxy)ethoxy]-44-[(1R)-2-[(1S,3R, 4R)-4-(2-hydroxyethoxy)-3-methoxy-cyclohexyl]-1-methyl-ethyl]-46-methoxy-34,35,36,37,47,48-hexamethyl-66,67-dioxa-56-azatricyclohexatriaconta-21, 23,25(47),26(48)-tetraene-49,50,51,52,53-pentone], the IC50 in assay [1] lay within 0.1 to 1 nM. In the assay with mTORC1 over mTORC2, the “mTORC1 selective @ 24 hrs” value is “YES”.

(Values after patent publication US11944605B2, “Rapamycin analogs and uses thereof” (Janssen Pharmaceutica NV, priority 2018, dated 2024).)
